Experimental data published in publication PMC4552634, “A New Set of Chemical Starting Points with Plasmodium falciparum Transmission-Blocking Potential for Antimalarial Drug Discovery” (PLoS ONE, 2015).
Like-named read-outs stand apart in the source and are kept apart here.

What was measured:
[1] = tested on: P. falciparum stage V gametocytes; test: microbe, parasite or virus in culture; design: BacTiter-Glo ATP luminescence viability of purified stage V gametocytes in 384-well plates, per cent inhibition versus DMSO
[2] = tested on: P. falciparum stage V gametocytes; test: Gametocytocidal ATP bioluminescence assay (single point 5 μM and 1 μM, dose-response); type: cell-based, Plasmodium falciparum; conditions: for Ratio IC50 HepG2/IC50 P. falciparum: IC50 HepG2 divided by IC50 P. falciparum gametocytes
Description: Purified stage IV-V gametocytes were obtained as previously described [10]. Single point ATP bioluminescence assay and dose–response of positive hits was determined in accordance with the previously published protocol [10].

HepG2 cells = test: Cytotoxicity in HepG2 cells (intracellular ATP, ATPlite, 48 h); type: cell-based, human; conditions: HepG2 cells; IC50 per ratio column head; unit inferred
[3] = tested on: P. falciparum asexual stages; conditions: asexual stages; TCAMS data; read-out: IC50 asexual; cited from earlier work
[4] = Plasmodium falciparum, 48 h; read-out: % Inhibition
[5] = Plasmodium falciparum, 48 h, read-out: % Inhibition
[6] = P. falciparum gametocytes, average, read-out: IC50 Pf Gametocytes average, IC50 (µM) average
[7] = sexual stages (gametocytes), dose-response, read-out: IC50 sexual

| SMILES | inhibition at 5 µM [1, 5] | Ratio IC50 HepG2/IC50 P. falciparum [2] | IC50 [2, 6] | IC50 (HepG2 cells) | IC50 [3] | other results |
| --- | --- | --- | --- | --- | --- | --- |
| CNCCc1c(O)ccc2ccccc12 [TCMDC-142244] |  |  |  |  |  | inhibition at 5 µM [1, 4]: -11.4% |
| CCN(CC)CCCC(C)Nc1c(-c2ccc(Br)cc2)cnc2ccccc12 (stereo not drawn) [TCMDC-142263] | 26% |  |  |  |  |  |
| CCN(CC)CC(O)c1cc(-c2ccc(OC)cc2)nc2cc(Cl)ccc12 (stereo not drawn) [TCMDC-142222] | -13% |  |  |  |  |  |
| COc1ccc(C=Cc2cc(N)c3ccccc3n2)cc1 [TCMDC-142280] | 97.9% |  |  |  |  |  |
| Cc1ccc2c(NN=Cc3ccc(Cl)cc3)cc(C)nc2c1 [TCMDC-142113] | 40.7% |  |  |  |  |  |
| Nc1c2c(nc3ccc(NC(=O)c4ccc([N+](=O)[O-])cc4)cc13)CCCC2 [TCMDC-142291] | 60.6% |  |  |  |  |  |
| COc1ccc2c(NN=Cc3ccccc3F)ccnc2c1 [TCMDC-142133] | 84.6% |  |  |  |  |  |
| CCCCN(CCCC)C(=O)CC(O)c1cc2c(Cl)cc(Cl)cc2c2cc(C(F)(F)F)ccc12 (stereo not drawn) [TCMDC-142317] | 14.8% |  |  |  |  |  |
| Cc1ccc(C2(O)CC3CCC(C2)N3C)cc1 (stereo not drawn) [TCMDC-142260] | 10.6% |  |  |  |  |  |
| COc1ccc2nc(C)cc(NN=Cc3cc(OC)c(OC)cc3OC)c2c1 [TCMDC-142199] | -26% |  |  |  |  |  |
| COc1ccc(C=NNc2ccnc3cc(F)c(C)cc23)c2ccccc12 [TCMDC-142235] | -8.9% |  |  |  |  |  |
| CCCCCCC(CC)c1cc(O)c2c(c1)OC(C)(C)c1ccncc1-2 (stereo not drawn) [TCMDC-142258] |  |  |  |  |  | inhibition at 5 µM [1, 4]: -39.1% |
| O=c1c(NCCCN(Cc2ccc(F)cc2)c2ccccn2)c(NCc2ccncc2)c1=O [TCMDC-142310] | 91.6% |  |  |  |  |  |
| COc1cccc(C=NNc2cc(C)nc3ccccc23)c1 [TCMDC-142183] | -15.9% |  |  |  |  |  |
| CCCCCC(C)C(C)c1cc(O)c2c(c1)OC(C)(C)c1cnccc1-2 (stereo not drawn) [TCMDC-142188] |  |  |  |  |  | inhibition at 5 µM [1, 4]: -17.5% |
| Cc1ccccc1Nc1cc(Nc2ccccc2C)c2ccccc2n1 [TCMDC-142337] | 98.8% |  |  |  |  |  |
| CC1(C)N=C(N)N=C(N)N1c1ccc2ccccc2c1 [TCMDC-142179] | -17.5% |  |  |  |  |  |
| COc1ccc(C=NNc2cc(C)nc3ccc(C)cc23)c2ccccc12 [TCMDC-142217] | 103% |  |  |  |  |  |
| COc1ccc2nccc(NN=Cc3ccc([N+](=O)[O-])cc3)c2c1 [TCMDC-142139] | -3.02% |  |  |  |  |  |
| COc1ccc(C2CNCc3c2cc(OC)c(OC)c3Cl)cc1 (stereo not drawn) [TCMDC-142271] | 22.9% |  |  |  |  |  |
| Cc1cc2nc(-c3cc(Br)ccc3O)c(-c3cc(Br)ccc3O)nc2cc1C [TCMDC-142220] | 24.2% |  |  |  |  |  |

| SMILES | inhibition at 5 µM [1, 5] | Ratio IC50 HepG2/IC50 P. falciparum [2] | IC50 [2, 6] | IC50 (HepG2 cells) | IC50 [3] | other results |
| --- | --- | --- | --- | --- | --- | --- |
| COc1cccc2c(NN=Cc3cccc(Cl)c3)cc(C)nc12 [TCMDC-142117] | 27.1% |  |  |  |  |  |
| CC(C)NCC(O)COc1ccc(Cc2ccc(OCC(O)CNC(C)C)cc2)cc1 (stereo not drawn) [TCMDC-142221] | 77% |  |  |  |  |  |
| O=[N+]([O-])c1ccccc1C=NNc1ccnc2ccccc12 [TCMDC-142102] | -47.5% |  |  |  |  |  |
| COc1ccc(C=NNc2cc(C)nc3c(C)cccc23)c2ccccc12 [TCMDC-142216] | -26.1% |  |  |  |  |  |
| COc1ccc2c(NN=Cc3ccc(F)cc3)ccnc2c1 [TCMDC-142135] | 5.77% |  |  |  |  |  |
| COc1ccc2c(NN=Cc3ccc(Cl)cc3)ccnc2c1 [TCMDC-142105] | -15.3% |  |  |  |  |  |
| COc1ccc(C=NNc2cc(C)nc3ccccc23)c(OC)c1 [TCMDC-142196] | 98.4% |  |  |  |  |  |
| CON(CCCN(C)C)C(=N)N [TCMDC-142297] | 12.5% |  |  |  |  |  |
| Cc1cc(NN=Cc2ccc(F)cc2)c2cc(C(F)(F)F)ccc2n1 [TCMDC-142158] | -75.7% |  |  |  |  |  |
| CNc1nc(Nc2ccccc2C)nc2ccccc12 [TCMDC-142325] | 50.8% |  |  |  |  |  |
| CC(C)c1cc(Oc2c(I)cc(CCNCc3ccccc3)cc2I)ccc1O [TCMDC-142300] | -73.5% |  |  |  |  |  |
| CCCCCCCCNCC(O)c1ccc(Cl)c(Cl)c1 (stereo not drawn) [TCMDC-142225] | 17.7% |  |  |  |  |  |
| Cc1cc(N/N=C/c2ccccc2[N+](=O)[O-])c2cc(C(F)(F)F)ccc2n1 [TCMDC-142157] | 4.83% |  |  |  |  |  |
| CCCCN(CCCC)CCC(O)C(=Cc1ccc(Cl)cc1Cl)c1ccc(C(F)(F)F)cc1N (stereo not drawn) [TCMDC-142318] | -17.1% |  |  |  |  |  |
| COc1ccc2nccc(NN=Cc3ccccc3[N+](=O)[O-])c2c1 [TCMDC-142136] | 27.9% |  |  |  |  |  |
| Oc1ccc(Cc2cc(Oc3c(I)cc(CCc4ncc[nH]4)cc3I)ccc2O)cc1 [TCMDC-142306] | 59.2% |  |  |  |  |  |
| CCCCCCC(C)(C)c1cc(O)c2c3c(c(=O)oc2c1)CCN(Cc1ccccc1)C3 [TCMDC-142252] |  |  |  |  |  | inhibition at 5 µM [1, 4]: -7.75% |
| Cc1ccccc1Nc1nc(NCCc2ccccc2)nc2ccccc12 [TCMDC-142322] | 101% |  |  |  |  |  |
| CC(C)(C)CC(C)(C)c1ccc(O)c(C(=O)Nc2cccc([N+](=O)[O-])c2)c1 [TCMDC-142210] | 8.52% |  |  |  |  |  |
| COc1ccc2nccc(NN=CC=Cc3ccccc3)c2c1 [TCMDC-142143] | 39% |  |  |  |  |  |
| Cc1cc(NN=Cc2ccc(Cl)cc2)c2cc(F)ccc2n1 [TCMDC-142163] | 56.5% |  |  |  |  |  |

| SMILES | inhibition at 5 µM [1, 5] | Ratio IC50 HepG2/IC50 P. falciparum [2] | IC50 [2, 6] | IC50 (HepG2 cells) | IC50 [3] | other results |
| --- | --- | --- | --- | --- | --- | --- |
| Cc1cc(F)ccc1Nc1nc(N(C)c2ccccc2)c2cc(OCCN(C)C)ccc2n1 [TCMDC-142333] | 31.3% |  |  |  |  |  |
| O=C(NCCCCN1CCC(c2c[nH]c3ccc(-c4ccccc4)cc23)CC1)c1ccc(-c2ccccc2)cc1 [TCMDC-139064] |  | 5 | 1.83 µM | 9400 nM | 985 nM |  |
| COc1ccc(CCNC(C)Cc2ccc(C(=O)Nc3ccc(CC(C)NCCc4cccc(Cl)c4)cc3)cc2)cc1 (stereo not drawn) [TCMDC-139750] |  | 4 | 0.62 µM | 2400 nM | 248 nM |  |
| c1ccc2c(NCCCCCCCCCNc3ccnc4ccccc34)ccnc2c1 [TCMDC-137750] |  | 2.83 | 1.03 µM | 2900 nM | 115 nM | IC50 [2, 7]: 1.02 µM |
| CCC(CSC1CCCCC1)N(C)CCN(C)C(CC)CSC1CCCCC1 (stereo not drawn) [TCMDC-131456] |  | 0.621 | 1.4 µM | 870 nM | 314 nM |  |
| CCN(CC)/C(=N/C(=N)Nc1ccc(Cl)c(Cl)c1)NCCCCCCN/C(=N\C(=N)Nc1ccc(Cl)c(Cl)c1)N(CC)CC [TCMDC-131808] |  | >7 | 3.44 µM | > 25000 nM | 761 nM | IC50 [2, 7]: 3.44 µM |
| CCN(Cc1ccc(-c2ccc(C(F)(F)F)cc2)cc1)C(=O)Cn1c(SCc2cccc(F)c2F)cc(=O)c2cc(CN3CCCCC3)ccc21 [TCMDC-141592] |  | 1.8 | 2.34 µM | 4200 nM | 801 nM | IC50 [2, 7]: 2.33 µM |
| COc1c(C2CCN(CCN3CCC(CNC(=O)c4ccc(-c5ccc(C#N)cc5)cc4)CC3)CC2)ccc2c1CCCC2 [TCMDC-138859] |  | 2.83 | 1.17 µM | 3300 nM | 455 nM | IC50 [2, 7]: 1.17 µM |
| Cc1cc(N[C@@H](Cc2ccccc2)C(=O)NCCc2ccccc2)nc(NCCc2ccccc2)n1 [TCMDC-134776] |  | <1 | > 10 µM | 13600 nM | 850 nM |  |
| CC(C)(C)N1CCC(N(Cc2ccc(-c3ccc(C(F)(F)F)cc3)cc2)C(=O)Cn2c(CCc3cccc(F)c3F)cc(=O)c3cccnc32)CC1 [TCMDC-136011] |  | 1.3 | 2.39 µM | 3100 nM | 705 nM |  |
| CC(C)(C)c1ccc(-c2nc3c(ccc4nc(N)nc(N)c43)[nH]2)cc1 [TCMDC-137984] |  | 19 | 0.21 µM | 3850 nM | 158 nM | IC50 [2, 7]: 0.205 µM |
| FC(F)(F)COc1ccc(CNCCCCCCNCc2ccc(OCC(F)(F)F)c3ccccc23)c2ccccc12 [TCMDC-137853] |  | 55 | 0.055 µM | 3000 nM | 400 nM |  |
| CCOc1c(CCNCCCCNCCc2ccc3ccccc3c2OCC)ccc2ccccc12 [TCMDC-137759] |  | <9 | 0.17 µM | < 1560 nM | 596 nM | IC50 [2, 7]: 0.173 µM |
| CC(C)CCNCc1ccc(OCc2cccc(COc3ccc(CNCCC(C)C)cc3I)c2)c(I)c1 [TCMDC-137274] |  | 14 | 0.37 µM | 5300 nM | 453 nM |  |
| COc1cc(Br)c(S(=O)(=O)n2cc(CN3CCC(N)CC3)c3cc(Cl)ccc32)cc1OC [TCMDC-136384] |  | 2.77 | 2.42 µM | 6700 nM | 985 nM | IC50 [2, 7]: 2.42 µM |
| COc1cc2ccccc2c(OC)c1CCNCCCCNCCc1c(OC)cc2ccccc2c1OC [TCMDC-137842] |  | 10 | 0.31 µM | 3200 nM | 891 nM | IC50 [2, 7]: 0.305 µM |
| CCCCCOc1ccc(C(O)C(CCC(CN2CCCCCC2)C(O)c2ccc(OCCCCC)cc2)CN2CCCCCC2)cc1 (stereo not drawn) [TCMDC-124174] |  | 5.67 | 1.2 µM | 6800 nM | 768 nM |  |
| CN1CCN(CCCN(Cc2cccc(-c3cccc(CNC4CCCC4)c3)c2)C(=O)/C=C/c2ccccc2)CC1 [TCMDC-140543] |  | 9 | 0.8 µM | 7170 nM | 777 nM | IC50 [2, 7]: 0.805 µM |
| COc1cccc(CCNCCCCCCNCCc2ccc(Cl)cc2)c1 [TCMDC-131284] |  | 12 | 0.53 µM | 6100 nM | 1010 nM |  |
| CSc1ccc2ccccc2c1CCNCCCCNCCc1c(SC)ccc2ccccc12 [TCMDC-137763] |  | 7 | 0.23 µM | 1650 nM | 408 nM |  |
| CCOc1ccc2ccccc2c1CNCCCCCCNCc1c(OCC)ccc2ccccc12 [TCMDC-137791] |  | 2.5 | 0.7 µM | 1750 nM | 576 nM |  |
